Values of other authors as cited in PubChem BioAssay AID1259409 (Chemical Carcinogenesis Research Information System (CCRIS), 2018).

Tested on: rodent chemically induced tumor inhibition, incidence and multiplicity
Test: CCRIS tumor inhibitor studies
Conditions: Dose [Inhibitor]: 0

SMILES | tumour outcome (control, treated, inhibition, significance) (Carcinogen: 7,12-DIMETHYLBENZ[A]ANTHRACENE, 57-97-6, 200 UG IN 0.2 ML ACETONE 3/WK 1 HR BEFORE PROMOTER ON 2 D AND ALONE ON 1 D BEGINNING 18 D POST CARCINOGEN AND CONTINU, Route [Inhibitor]: DERMAL, Species: MOUSE, Strain/Sex: CD-1/FEMALE, Target Tissue: Type of Lesion: SKIN: PAPILLOMA, Dose [Carcinogen]: 200 NMOL IN 0.2 ML ACETONE ONCE AND MICE KEPT IN DARKENED ROOM FOR 48 HR POST INITIATION, Promoter: 12-O-TETRADECANOYLPHORBOL-13-ACETATE, 16561-29-8) | tumour outcome (control, treated, inhibition, significance) (Carcinogen: AZOXYMETHANE, 25843-45-2, 200 PPM IN DIET BEGINNING PRIOR TO CARCINOGEN DOSE AND CONTINUING FOR DURATION OF STUDY (STUDY DURATION: 54 WK), Route [Inhibitor]: ORAL, Species: RAT, Strain/Sex: F344/MALE, Target Tissue: Type of Lesion: COLON: ADENOCARCINOMA, Dose [Carcinogen]: 15 MG/KG 1/WK FOR 2 WK, Promoter: NONE USED) | tumour outcome (control, treated, inhibition, significance) (Carcinogen: AZOXYMETHANE, 25843-45-2, 200 PPM IN DIET BEGINNING PRIOR TO CARCINOGEN DOSE AND CONTINUING FOR DURATION OF STUDY (STUDY DURATION: 54 WK), Route [Inhibitor]: ORAL, Species: RAT, Strain/Sex: F344/MALE, Target Tissue: Type of Lesion: COLON: ADENOMA, Dose [Carcinogen]: 15 MG/KG 1/WK FOR 2 WK, Promoter: NONE USED) | tumour outcome (control, treated, inhibition, significance) (Carcinogen: AZOXYMETHANE, 25843-45-2, 200 PPM IN DIET BEGINNING PRIOR TO CARCINOGEN DOSE AND CONTINUING FOR DURATION OF STUDY (STUDY DURATION: 54 WK), Route [Inhibitor]: ORAL, Species: RAT, Strain/Sex: F344/MALE, Target Tissue: Type of Lesion: SMALL INTESTINE: ADENOCARCINOMA, Dose [Carcinogen]: 15 MG/KG 1/WK FOR 2 WK, Promoter: NONE USED) | tumour outcome (control, treated, inhibition, significance) (Carcinogen: AZOXYMETHANE, 25843-45-2, 200 PPM IN DIET BEGINNING PRIOR TO CARCINOGEN DOSE AND CONTINUING FOR STUDY DURATION (STUDY DURATION: 54 WK), Route [Inhibitor]: ORAL, Species: RAT, Strain/Sex: F344/MALE, Target Tissue: Type of Lesion: SMALL INTESTINE: ADENOMA, Dose [Carcinogen]: 15 MG/KG 1/WK FOR 2 WK, Promoter: NONE USED) | tumour outcome (control, treated, inhibition, significance) (Carcinogen: AZOXYMETHANE, 25843-45-2, 400 PPM IN DIET BEGINNING PRIOR TO CARCINOGEN DOSE AND CONTINUING FOR DURATION OF STUDY (STUDY DURATION: 54 WK), Route [Inhibitor]: ORAL, Species: RAT, Strain/Sex: F344/MALE, Target Tissue: Type of Lesion: COLON: ADENOCARCINOMA, Dose [Carcinogen]: 15 MG/KG 1/WK FOR 2 WK, Promoter: NONE USED) | tumour outcome (control, treated, inhibition, significance) (Carcinogen: AZOXYMETHANE, 25843-45-2, 400 PPM IN DIET BEGINNING PRIOR TO CARCINOGEN DOSE AND CONTINUING FOR DURATION OF STUDY (STUDY DURATION: 54 WK), Route [Inhibitor]: ORAL, Species: RAT, Strain/Sex: F344/MALE, Target Tissue: Type of Lesion: COLON: ADENOMA, Dose [Carcinogen]: 15 MG/KG 1/WK FOR 2 WK, Promoter: NONE USED) | tumour outcome (control, treated, inhibition, significance) (Carcinogen: AZOXYMETHANE, 25843-45-2, 400 PPM IN DIET BEGINNING PRIOR TO CARCINOGEN DOSE AND CONTINUING FOR DURATION OF STUDY (STUDY DURATION: 54 WK), Route [Inhibitor]: ORAL, Species: RAT, Strain/Sex: F344/MALE, Target Tissue: Type of Lesion: SMALL INTESTINE: ADENOCARCINOMA, Dose [Carcinogen]: 15 MG/KG 1/WK FOR 2 WK, Promoter: NONE USED) | tumour outcome (control, treated, inhibition, significance) (Carcinogen: AZOXYMETHANE, 25843-45-2, 400 PPM IN DIET BEGINNING PRIOR TO CARCINOGEN DOSE AND CONTINUING FOR DURATION OF STUDY (STUDY DURATION: 54 WK), Route [Inhibitor]: ORAL, Species: RAT, Strain/Sex: F344/MALE, Target Tissue: Type of Lesion: SMALL INTESTINE: ADENOMA, Dose [Carcinogen]: 15 MG/KG 1/WK FOR 2 WK, Promoter: NONE USED) | tumour outcome (control, treated, inhibition, significance) (Carcinogen: N-METHYL-N-NITROSOUREA, 684-93-5, 0.1% IN DIET FOR DURATION OF STUDY BEGINNING 1 WK PRIOR TO CARCINOGEN DOSE (STUDY DURATION: 187 D), Route [Inhibitor]: ORAL, Species: RAT, Strain/Sex: SPRAGUE-DAWLEY/FEMALE, Target Tissue: Type of Lesion: MAMMARY GLAND: CARCINOMA, Dose [Carcinogen]: 50 MG/KG ONCE AT 50 D OF AGE, Promoter: NONE USED) | tumour outcome (control, treated, inhibition, significance) (Carcinogen: N-METHYL-N-NITROSOUREA, 684-93-5, 0.2% IN DIET FOR 2 WK BEGINNING 1 WK PRIOR TO CARCINOGEN DOSE (STUDY DURATION: 187 D), Route [Inhibitor]: ORAL, Species: RAT, Strain/Sex: SPRAGUE-DAWLEY/FEMALE, Target Tissue: Type of Lesion: MAMMARY GLAND: CARCINOMA, Dose [Carcinogen]: 50 MG/KG ONCE AT 50 D OF AGE, Promoter: NONE USED) | tumour outcome (control, treated, inhibition, significance) (Carcinogen: N-METHYL-N-NITROSOUREA, 684-93-5, 0.2% IN DIET FOR DURATION OF STUDY BEGINNING 1 WK POST CARCINOGEN DOSE (STUDY DURATION: 180 D), Route [Inhibitor]: ORAL, Species: RAT, Strain/Sex: SPRAGUE-DAWLEY/FEMALE, Target Tissue: Type of Lesion: MAMMARY GLAND: CARCINOMA, Dose [Carcinogen]: 50 MG/KG ONCE AT 50 D OF AGE, Promoter: NONE USED) | tumour outcome (control, treated, inhibition, significance) (Carcinogen: N-METHYL-N-NITROSOUREA, 684-93-5, 0.2% IN DIET FOR DURATION OF STUDY BEGINNING 1 WK PRIOR TO CARCINOGEN DOSE (STUDY DURATION: 187 D), Route [Inhibitor]: ORAL, Species: RAT, Strain/Sex: SPRAGUE-DAWLEY/FEMALE, Target Tissue: Type of Lesion: MAMMARY GLAND: CARCINOMA, Dose [Carcinogen]: 50 MG/KG ONCE AT 50 D OF AGE, Promoter: NONE USED) | tumour outcome (control, treated, inhibition, significance) (Carcinogen: 1,2-DIMETHYLHYDRAZINE, 540-73-8, 10% IN FIBER-FREE DIET FOR 24 WK BEGINNING POST CARCINOGEN TREATMENT (STUDY DURATION: 32 WK), Route [Inhibitor]: ORAL, Species: RAT, Strain/Sex: SPRAGUE-DAWLEY/MALE, Target Tissue: Type of Lesion: COLON: ADENOCARCINOMA, Dose [Carcinogen]: 12 MG/KG BW 1/WK FOR 8 WK, Promoter: NONE USED)
C[C@]12CCCCC1=CC[C@@H]1[C@@H]2CC[C@]2(C)C(=O)[C@H](F)C[C@@H]12 | 92%, 70%, 24%, not calculated | 72%, 50%, 31%, p<0.05 | 14%, 8%, 43%, not calculated | 50%, 28%, 44%, not calculated | 3%, 0%, 100%, not calculated | 72%, 61%, 15%, not calculated | 14%, 6%, 57%, not calculated | 50%, 17%, 66%, p<0.01 | 3%, 0%, 100%, not calculated | 100%, 100%, 0%, not significant | 100%, 100%, 0%, not significant | 100%, 95%, 5%, not significant | 100%, 100%, 0%, not significant | 
O=CC(O)C(O)C(O)CO (centres undefined) |  |  |  |  |  |  |  |  |  |  |  |  |  | 73%, 53%, 27%, p=0.05
